Experimental data from patent publication US20260199500A1, “Camptothecin Derivative, Conjugate Thereof, Preparation Method Therefor and Medical Use Thereof” (priority 2023, published 2026).

What was measured:
PA-1 (Ovarian) cells = test: Inhibition of PA-1 cells by compounds; assay type: cell-based; details: PY-X (DXD) set to 1
Method: (§1) On the day of the experiment, the cells were digested with 0.25% trypsin (Gibco, 25200-072), filtered through a 40 μm sieve, diluted with the corresponding medium to a cell density of 1×10^4 cells/mL, and inoculated into a 96-well white cell culture plate (Beyotime, FCP968), with 100 μL of cells added per well. The culture plate was placed in a 37° C. incubator (Thermo 311) containing 5% C02 and incubated for 24 hours. On the second day, the samples to be tested were prepared as a stock solution at a final concentration of 1M in DMSO (Sigma, D1650), then diluted with the corresponding medium to a final concentration of 200 nM, and subjected to four-fold serial dilutions, resulting in a total of 9 concentrations. 100 μL of the diluted sample was added to each well of the 96-well plate. The plate was placed in a 37° C. incubator containing 5% CO2 and incubated for 144 hours. The cell culture plate was then removed, and 100 μL of the cell viability assay reagent (CellTiter-Glo® Luminescent Cell Viability Assay, Promega, G7571) was added to each well. The reaction was carried out in the dark at room temperature for 5 minutes. Luminescence values were read using a microplate reader (TECAN SPARK), and data were processed using Graphpad Prism 7 software.

N87 gastric cancer cells = test: Inhibitory activity of compounds on N87 gastric cancer cells (CellTiter-Glo, 144 h); assay type: cell-based; details: IC50 of PY-X (DXD) set to 1; values are ratios of measured IC50 to DXD; 144 h
Method: as §1
(§2) PY—Y is referenced in the document (WO2022170971A1); and PY-A is referenced in the document (WO2021148501A1).

DMS53 (SCLC) cells = test: Inhibition of DMS53 cells by compounds; assay type: cell-based; details: PY-X (DXD) set to 1
Method: as §1

[1] = system: MDA-MB-468 breast cancer cells; test: Inhibitory activity of compounds on MDA-MB-468 breast cancer cells (CellTiter-Glo); assay type: cell-based; details: IC50 of PY-X (DXD) set to 1; values are ratios of measured IC50 to DXD
Method: as §1, §2

[2] = system: PANC-1 (Pancreatic) cells; test: Inhibition of PANC-1 cells by compounds; assay type: cell-based; details: PY-X (DXD) set to 1
Method: as §1

OVCAR3 (Ovarian) cells = test: Inhibition of OVCAR3 cells by compounds; assay type: cell-based; details: PY-X (DXD) set to 1
Method: as §1

A549 (NSCLC) cells = test: Inhibition of A549 cells by compounds; assay type: cell-based; details: PY-X (DXD) set to 1
Method: as §1

H82 (SCLC) cells = test: Inhibition of H82 cells by compounds; assay type: cell-based; details: PY-X (DXD) set to 1
Method: as §1

FADU (HNSCC) cells = test: Inhibition of FADU cells by compounds; assay type: cell-based; details: PY-X (DXD) set to 1
Method: as §1

H23 (NSCLC) cells = test: Inhibition of H23 cells by compounds; assay type: cell-based; details: PY-X (DXD) set to 1
Method: as §1

H1437 (NSCLC) cells = test: Inhibition of H1437 cells by compounds; assay type: cell-based; details: PY-X (DXD) set to 1
Method: as §1

H1975 (NSCLC) cells = test: Inhibition of H1975 cells by compounds; assay type: cell-based; details: PY-X (DXD) set to 1
Method: as §1

H358 (NSCLC) cells = test: Inhibition of H358 cells by compounds; assay type: cell-based; details: PY-X (DXD) set to 1
Method: as §1

H1650 (NSCLC) cells = test: Inhibition of H1650 cells by compounds; assay type: cell-based; details: PY-X (DXD) set to 1
Method: as §1

Colo-205 (Colon) cells = test: Inhibition of Colo-205 cells by compounds; assay type: cell-based; details: PY-X (DXD) set to 1
Method: as §1

HT-29 (Colon) cells = test: Inhibition of HT-29 cells by compounds; assay type: cell-based; details: PY-X (DXD) set to 1
Method: as §1

SW1573 (NSCLC) cells = test: Inhibition of SW1573 cells by compounds; assay type: cell-based; details: PY-X (DXD) set to 1
Method: as §1

[3] = system: SW1990 (Pancreatic) cells; test: Inhibition of SW1990 cells by compounds; assay type: cell-based; details: PY-X (DXD) set to 1
Method: as §1

[4] = US 20210169852 A; cited from earlier work

Row | Compound | IC50 in PA-1 cells, ratio to DXD (PA-1 (Ovarian) cells) | IC50 on N87 cells, ratio to DXD (N87 gastric cancer cells) | IC50 in DMS53 cells, ratio to DXD (DMS53 (SCLC) cells) | IC50 on 468 cells, ratio to DXD [1] | IC50 in PANC-1 cells, ratio to DXD [2] | IC50 in OVCAR3 cells, ratio to DXD (OVCAR3 (Ovarian) cells) | IC50 in A549 cells, ratio to DXD (A549 (NSCLC) cells) | IC50 in H82 cells, ratio to DXD (H82 (SCLC) cells) | IC50 in FADU cells, ratio to DXD (FADU (HNSCC) cells) | IC50 in H23 cells, ratio to DXD (H23 (NSCLC) cells) | IC50 in H1437 cells, ratio to DXD (H1437 (NSCLC) cells) | IC50 in H1975 cells, ratio to DXD (H1975 (NSCLC) cells) | IC50 in H358 cells, ratio to DXD (H358 (NSCLC) cells) | IC50 in H1650 cells, ratio to DXD (H1650 (NSCLC) cells) | IC50 in Colo-205 cells, ratio to DXD (Colo-205 (Colon) cells) | IC50 in HT-29 cells, ratio to DXD (HT-29 (Colon) cells) | IC50 in SW1573 cells, ratio to DXD (SW1573 (NSCLC) cells) | IC50 in SW1990 cells, ratio to DXD [3] | times less active than exatecan [4]
1 | CC[C@@]1(O)C(=O)OCc2c1cc1n(c2=O)Cc2c-1nc1cc(F)c(O)c3c1c2CCC3 [PY-13, (S)-9-ethyl-5-fluoro-4,9-dihydroxy-1,2,3,9,12,15-hexahydro-10H,13H-benzo[de]pyrano[3′,4:6,7]indolizino[1,2-b]quinolin-10,13-dione] | 0.1600 | 0.0852 | 0.1624 | 0.0798 | 0.0810 | 0.0560 | 0.0899 | 0.1364 | 0.1648 | 0.0819 | 0.0969 | 0.0426 | 0.1062 | 0.0415 | 0.1643 | 0.1434 | 0.1570 | 0.1255 | 
2 | CC[C@@]1(O)C(=O)OCc2c1cc1n(c2=O)Cc2c-1nc1cc(F)c(C)c3c1c2[C@@H](NC(=O)CO)CC3 [DXd] |  |  |  |  |  |  |  |  |  |  |  |  |  |  |  |  |  |  | 2-4
